Measured values as given in BigSolDB 2.1.

N=C(Nc1ccccc1)Nc1ccccc1
solubility (mole fraction)
Conditions	in acetone	in acetonitrile	in ethanol	in ethyl acetate	in isobutanol	in n-butanol	in n-propanol	in toluene
273.15 K	0.0433	0.00828	0.0144	0.0278	0.0124	0.018	0.0159	0.00132
275.65 K	0.0468	0.00909	0.0156	0.03	0.0135	0.0194	0.0174	0.00154
278.15 K	0.0508	0.0101	0.017	0.0325	0.0147	0.021	0.0189	0.00172
280.65 K	0.0554	0.0111	0.0184	0.0347	0.016	0.0227	0.0204	0.00195
283.15 K	0.0599	0.0122	0.0199	0.0372	0.0176	0.0245	0.0222	0.00219
285.65 K	0.0648	0.0134	0.0217	0.0401	0.0189	0.0266	0.0238	0.00249
288.15 K	0.07	0.0147	0.0235	0.0435	0.0208	0.0286	0.0259	0.00282
290.65 K	0.0751	0.0161	0.0253	0.0463	0.0224	0.0306	0.0278	0.00316
293.15 K	0.0802	0.0179	0.0273	0.0496	0.0244	0.0329	0.0301	0.00354
295.65 K	0.0862	0.0197	0.0292	0.053	0.0265	0.0352	0.0324	0.00389
298.15 K	0.0928	0.0214	0.0315	0.0566	0.0286	0.0377	0.035	0.00432
300.65 K	0.0993	0.0234	0.0337	0.0603	0.0311	0.0405	0.0379	0.00476
303.15 K	0.106	0.0254	0.0363	0.0641	0.0333	0.0431	0.0406	0.00528
305.65 K	0.113	0.0278	0.039	0.0678	0.0359	0.0462	0.0435	0.00584
308.15 K	0.12	0.0303	0.0419	0.0719	0.0384	0.0494	0.0465	0.00641
310.65 K	0.128	0.0331	0.0448	0.0763	0.0412	0.0527	0.0499	0.00709
313.15 K	0.137	0.036	0.0483	0.0814	0.0446	0.0562	0.0537	0.00771
